US20070173463A1, “Method and composition for treating otitis media” (priority 2006, published 2007)

Legend:
[1] = prophylactic drops; cited from earlier work
[2] = topical use in the ear; cited from earlier work
[3] = tested on: ear; conditions: guinea pigs; cited from earlier work
[4] = tested on: inner ear hearing function; experiment: Application to the round window membrane with monitoring of compound action potential (CAP); assay type: in vivo, guinea pigs; conditions: 0.05 to 1.0% applied directly to the round window membrane, more than 50 animals
From the text: The inventor conducted animal studies involving application of alpha agonists, including phenylphrine (and other similar agents) directly in the middle ear space of guinea pigs. In these studies, phenylephrine at a concentration of 0.05 to 1.0% was applied directly to the round window membrane of the animal. […] The monitoring of CAP was not specifically reported in published reports, but rather was monitored on a routine basis as a part of the experimental setup. […] See also Isaacson G et al., Oxymetazoline solutions inhibit middle ear pathogens and are not ototoxic.

[5] = topical; cited from earlier work

Molecule	toxicity for the inner ear (ototoxicity) [2]	effectiveness in treating middle ear infections [5]	also measured
O=C(O)c1cn(C2CC2)c2cc(N3CCNCC3)c(F)cc2c1=O [ciprofloxacin]			prevention of post-operative ear drainage after tube insertion [1]: effective at preventing post-operative ear drainage after tube insertion
CC1COc2c(N3CCN(C)CC3)c(F)cc3c(=O)c(C(=O)O)cn1c23 (stereo not drawn) [ofloxacin]	demonstrated lack of toxicity for the inner ear		
Cc1cc(C(C)(C)C)c(O)c(C)c1CC1=NCCN1 [oxymetazoline]			toxicity to the ear [3]: non-toxic to the ear
CNC[C@H](O)c1cccc(O)c1 [phenylephrine]			compound action potential (CAP), a measure of inner ear hearing function [4]: not found to be adversely affected
NC[C@H]1O[C@H](O[C@H]2[C@H](O)[C@@H](O[C@H]3O[C@H](CO)[C@@H](O)[C@H](N)[C@H]3O)[C@H](N)C[C@@H]2N)[C@H](N)C[C@@H]1O [tobramycin]	scattered reports of ototoxicity	effective in treating middle ear infections topically	
Gentamycin	scattered reports of ototoxicity	effective in treating middle ear infections topically	
neomycin		effective in treating middle ear infections topically	
